Where a name gives a salt, the structure may show the parent alone.
How the values were obtained:
GABAA receptors = experiment: Single-unit recordings in contralateral VLO during 10 Hz thalamocortical stimulation before and after micro-infusion of BMI; type: in vivo, Sprague-Dawley rats
Description: It was next hypothesized that decreases in cortical activity reflect direct GABA-mediated inhibition. The dependence of this response on downstream GABA release was tested by comparing evoked changes in firing rate before and after micro-infusion of bicuculline methiodide (BMI). […] Single-unit recordings were performed in cVLO, where negative fMRI signals were observed during 10 Hz thalamocortical stimulation (FIG. 5A). To ensure that any changes associated with BMI infusion were due to its pharmacological effect, infusions with sterile saline were first performed. To inject both BMI and saline, a pair of cannulas was attached to the recording electrode directly above the electrical contacts (FIG. 5B).
(§1) In vivo electrophysiology was performed to directly measure the neuronal activity of various brain regions during thalamocortical stimulation. As with imaging, anesthesia was maintained with a mixture of 02 (35%), N20 (65%), and −1.5% isoflurane. Throughout the procedure, body temperature was maintained at 37° C. using a thermoresistive heating pad (FHC, Inc., ME, USA). After securing the animal within a stereotactic frame, a 16-channel microelectrode array (NeuroNexus Technologies, MI, USA; A1×16 standard model linear electrode array) was inserted at the desired recording site. For recordings at the site of stimulation and zona incerta, an optical fiber glued to the electrode tip was used to deliver light. Remote recordings were performed at the following coordinates, averaged across animals: contralateral VLO (+4.68 mm AP, −1.90 mm ML, −4.90 mm DV), ipsilateral motor cortex (+3.24 mm AP, +2.43 mm ML, −3.00 mm DV), ipsilateral reticular nucleus (−1.86 mm AP, +2.20 mm ML, −6.93 mm DV), contralateral reticular nucleus (−1.92 mm AP, −2.10 mm ML, −7.17 mm DV), and ipsilateral zona incerta (−4.00 mm AP, +3.10 mm ML, −7.13 mm DV). Light was delivered to the fiber-optic implant at VLO via a 473 nm laser source calibrated to 5 mW power delivery. In one animal, a higher power level was used (no more than −2×) to account for a fiber implanted in a relatively dorsal position in VLO. For the optrode positioned in zona incerta, a […] diameter optical fiber was used to deliver continuous light from a 589 nm laser source (LaserGlow Technologies) calibrated to 5 mW at the implanted fiber's tip. Recordings were performed for 20 s without stimulation, followed by repeated stimulation cycles (20 s on, 40 s off) at 10 or 40 Hz with a 30% duty cycle. To assess the role of zona incerta, 10 Hz stimulation trials were interleaved with 30 s periods of simultaneous eNpHR activation beginning 5 s prior to 10 Hz stimulation (FIG. 7B).
(§2) Pharmacological infusions were performed during in vivo electrophysiology (same procedure as described above) with bicuculline methiodide (BMI; 0.6 mg/ml; Sigma-Aldrich #14343), lidocaine hydrochloride (2%; Fresenius Kabi, IL, USA; #491507), or sterile saline as a control. Solutions were delivered at a rate of 250 nL/min via two polyethylene cannulas (0.011/0.024″ ID/OD; A-M Systems, WA, USA)—one for saline and one for the active pharmacological agent—glued to the tip of a recording electrode, directly above the topmost recording contact. Cannula tips were beveled to ensure that injected solutions were released in the direction of the electrode.
(§3) Infusions of saline and BMI (500 nL) were performed in the contralateral VLO while recording directly below the site of infusion (FIG. 5B). For each solution, twenty 10 Hz stimulation/recording trials were performed before infusion onset, and twenty more trials were performed immediately after infusion. Saline was delivered first, followed by BMI. To assess the role of zona incerta, saline and lidocaine (500-1000 nL) were delivered to the ipsilateral zona incerta while recording in the contralateral VLO. […]

zona incerta = experiment: Single-unit recordings in contralateral VLO during 10 Hz thalamocortical stimulation after lidocaine infusion in zona incerta; type: in vivo, Sprague-Dawley rats
Description: ZI activity was first inactivated via incertal infusions of the sodium channel blocker lidocaine hydrochloride (FIG. 6A and FIGS. 14A-14B). […] In contrast, only 72% of units were inhibited during 10 Hz stimulation after inactivation of zona incerta with lidocaine (FIG. 6B).
as §1, §2, §3

[1] = cVLO baseline (pre-stimulation) firing rate

| SMILES | stimulus-evoked change in firing rate of a representative cVLO unit (GABAA receptors; 10 Hz stimulation after BMI infusion, p=0.63) | effect on stimulus-evoked inhibition in cVLO (GABAA receptors; 10 Hz thalamocortical stimulation, after BMI infusion) | time course of the reduction in stimulus-evoked inhibition (GABAA receptors; after BMI infusion, twenty 10 Hz trials) | units whose baseline firing rate decreased following BMI infusion (GABAA receptors; [1]) | units whose baseline firing rate increased following BMI infusion (GABAA receptors; [1]) | recorded units not modulated by stimulation after BMI infusion (GABAA receptors; cVLO units, 10 Hz thalamocortical stimulation, after 500 nL BMI (0.6 mg/ml) infusion in cVLO, 49 units, 2 animals, 20 trials per condition) | recorded units exhibiting a significant increase in firing rate during stimulation after BMI infusion (GABAA receptors; cVLO units, 10 Hz thalamocortical stimulation, after BMI infusion) | average baseline firing rate across all units after BMI infusion (GABAA receptors; cVLO, p=0.66) | stimulus-evoked change in firing rate of a representative cVLO unit (zona incerta; 10 Hz stimulation after lidocaine infusion, p=0.31) | time course of the reduction in evoked inhibition (zona incerta; after lidocaine infusion in zona incerta, twenty 10 Hz trials) | units inhibited during 10 Hz stimulation after inactivation of zona incerta (zona incerta; cVLO units, lidocaine (2%, 500-1000 nL) infused in ipsilateral zona incerta, N=62 units, 20 trials per condition) | stimulus-evoked changes in firing rate versus baseline and post-saline values (zona incerta; cVLO, post-hoc tests, p=9.6×10^−10 and 3.0×10^−7) | effect on remote cortical inhibition driven by 10 Hz stimulation in a subset of recorded units (zona incerta; incertal infusion, representative cVLO unit) |
| --- | --- | --- | --- | --- | --- | --- | --- | --- | --- | --- | --- | --- | --- |
| C[N+]1(C)CCc2cc3c(cc2[C@H]1[C@@H]1OC(=O)c2c1ccc1c2OCO1)OCO3.[I-] [BMI, bicuculline methiodide] | no longer causes a significant change in firing rate | completely eliminated the stimulus-evoked inhibition | took immediate effect after BMI infusion and continued throughout the following twenty trials | 18% | 27% | 96% | 4% | not significantly different | – | – | – | – | – |
| CCN(CC)CC(=O)Nc1c(C)cccc1C [lidocaine, lidocaine hydrochloride] | – | – | – | – | – | – | – | – | no longer exhibits a significant change in firing rate | took immediate effect after lidocaine infusion and persisted throughout the following twenty trials | 72% | different than both baseline and post-saline values | completely eliminated the remote cortical inhibition |
